{"source": "patent US20100069308A1", "about": "“Surfaces containing antibacterial polymers” (priority 2008, published 2010)", "data": [{"tested_on": "bacterial colonies", "experiment": "Antibacterial activity in the presence of biological serum (FIG. 1, number of bacterial colonies vs concentration)", "assay_type": "cell-based", "conditions": "after 24 hours in biological serum", "protocol": "Due to their mechanism of action, such antibacterial peptides should not be susceptible to resistance. […] In FIG. 1, panels 100A and 100B show the number of bacterial colonies as a function of the concentration of pexiganan 101A/B and ID 1 103 A/B, after 2 and 24 hours respectively, in biological serum. […] Accordingly, a peptide alternative that kills bacteria by a mechanism similar to that of antibacterial peptides but without the biological susceptibility would provide greater protection against bacterial colonization.\nFIG. 1 depicts the activity of ID 1 and an antibacterial peptide (pexiganan) in the presence of biological serum.", "values": [{"substance": "H—(NLys-Nspe-Nspe)4-NH2 [ID 1]", "Activity (number of bacterial colonies) in biological serum": "retains activity"}]}, {"tested_on": "E. coli", "experiment": "not given", "conditions": "cited from earlier work", "units": {"E. coli MIC": "µM"}, "values": [{"substance": "H-NLys-Nssb-Nspe-Nssb-Nspe-NLys-Nspe-NLys-Nssb-Nssb-Nspe-NLys-NH2 [ID 15]", "E. coli MIC": 3.1}, {"substance": "H—(NGlu-Nspe-Nspe)4-NH2 [ID 13]", "E. coli MIC": ">219"}, {"substance": "H—(NLys)4-(Nspe)8-NH2 [ID 14]", "E. coli MIC": 6.9}, {"substance": "H—(NLys-Nrpe-Nrpe)4-NH2 [ID 3]", "E. coli MIC": 3.5}, {"substance": "H—(NLys-Nsmb-Nspe)4-NH2 [ID 7]", "E. coli MIC": 7.4}, {"substance": "H—(NLys-Nspe-Nspe)2-NH2 [ID 4]", "E. coli MIC": 27}, {"substance": "H—(NLys-Nspe-Nspe)3-NH2 [ID 5]", "E. coli MIC": 9.1}, {"substance": "H—(NLys-Nspe-Nspe)4-NH2 [ID 1]", "E. coli MIC": 3.5}, {"substance": "H—(NLys-Nspe-Nspe)5-NH2 [ID 6]", "E. coli MIC": 5.5}, {"substance": "H—(NLys-Nspe-Nspe-NGlu-Nspe-Nspe)2-NH2 [ID 12]", "E. coli MIC": ">110"}, {"substance": "H—(NLys-Nspe-Nspe-NLys-Nspe-L-Pro-(NLys-Nspe-Nspe)2-NH2 [ID 11]", "E. coli MIC": 3.1}, {"substance": "H—(NLys-Nspe-Nspe-NLys-Nspe-NHis)2-NH2 [ID 10]", "E. coli MIC": 3.5}, {"substance": "H—(NLys-Nspe-Nspe-NLys-Nspe-Nsna)2-NH2 [ID 9]", "E. coli MIC": 3.3}, {"substance": "H—(NLys-Nssb-Nspe)4-NH2 [ID 2]", "E. coli MIC": 31}, {"substance": "H—(NLys-Nssb-Nspe-NLys-Nssb-Nsna)2-NH2 [ID 8]", "E. coli MIC": 7.2}]}, {"tested_on": "B. subtilis", "experiment": "not given", "conditions": "cited from earlier work", "values": [{"substance": "H-NLys-Nssb-Nspe-Nssb-Nspe-NLys-Nspe-NLys-Nssb-Nssb-Nspe-NLys-NH2 [ID 15]", "B. subtilis MIC": "15 µM"}, {"substance": "H—(NGlu-Nspe-Nspe)4-NH2 [ID 13]", "B. subtilis MIC": ">219 µM"}, {"substance": "H—(NLys)4-(Nspe)8-NH2 [ID 14]", "B. subtilis MIC": "1.7 µM"}, {"substance": "H—(NLys-Nrpe-Nrpe)4-NH2 [ID 3]", "B. subtilis MIC": ".88 µM"}, {"substance": "H—(NLys-Nsmb-Nspe)4-NH2 [ID 7]", "B. subtilis MIC": ".95 µM"}, {"substance": "H—(NLys-Nspe-Nspe)2-NH2 [ID 4]", "B. subtilis MIC": "27 µM"}, {"substance": "H—(NLys-Nspe-Nspe)3-NH2 [ID 5]", "B. subtilis MIC": "1.2 µM"}, {"substance": "H—(NLys-Nspe-Nspe)4-NH2 [ID 1]", "B. subtilis MIC": ".88 µM"}, {"substance": "H—(NLys-Nspe-Nspe)5-NH2 [ID 6]", "B. subtilis MIC": "1.4 µM"}, {"substance": "H—(NLys-Nspe-Nspe-NGlu-Nspe-Nspe)2-NH2 [ID 12]", "B. subtilis MIC": "6.9 µM"}, {"substance": "H—(NLys-Nspe-Nspe-NLys-Nspe-L-Pro-(NLys-Nspe-Nspe)2-NH2 [ID 11]", "B. subtilis MIC": "1.6 µM"}, {"substance": "H—(NLys-Nspe-Nspe-NLys-Nspe-NHis)2-NH2 [ID 10]", "B. subtilis MIC": "6.9 µM"}, {"substance": "H—(NLys-Nspe-Nspe-NLys-Nspe-Nsna)2-NH2 [ID 9]", "B. subtilis MIC": "1.6 µM"}, {"substance": "H—(NLys-Nssb-Nspe)4-NH2 [ID 2]", "B. subtilis MIC": "3.9 µM"}, {"substance": "H—(NLys-Nssb-Nspe-NLys-Nssb-Nsna)2-NH2 [ID 8]", "B. subtilis MIC": ".93 µM"}]}, {"tested_on": "Streptococcus pneumoniae", "experiment": "not given", "conditions": "cited from earlier work", "units": {"MIC": "µM"}, "values": [{"substance": "H—(NLys-Nspe-Nspe)4-NH2 [ID 1]", "MIC": "1.7 to 3.4"}]}, {"tested_on": "Haemophilus influenzae", "experiment": "not given", "conditions": "cited from earlier work", "units": {"MIC": "µM"}, "values": [{"substance": "H—(NLys-Nspe-Nspe)4-NH2 [ID 1]", "MIC": 6.9}]}, {"tested_on": "Staphylococcus aureus", "experiment": "not given", "conditions": "cited from earlier work", "units": {"MIC": "µM"}, "values": [{"substance": "H—(NLys-Nspe-Nspe)4-NH2 [ID 1]", "MIC": 3.4}]}, {"tested_on": "Escherichia coli", "experiment": "not given", "conditions": "cited from earlier work", "units": {"MIC": "µM"}, "values": [{"substance": "H—(NLys-Nspe-Nspe)4-NH2 [ID 1]", "MIC": "14 to 28"}]}, {"tested_on": "Enterococcus faecalis", "experiment": "not given", "conditions": "cited from earlier work", "units": {"MIC": "µM"}, "values": [{"substance": "H—(NLys-Nspe-Nspe)4-NH2 [ID 1]", "MIC": "3.4 to 6.9"}]}, {"tested_on": "Psuedomonas aeruginosa", "experiment": "not given", "conditions": "cited from earlier work", "units": {"MIC": "µM"}, "values": [{"substance": "H—(NLys-Nspe-Nspe)4-NH2 [ID 1]", "MIC": 28}]}]}
